From ChEMBL document CHEMBL6109101, “Synthesis and bioactivity of cyclic peptide GG-8-6 analogues as anti-hepatocellular carcinoma agents” (Eur J Med Chem, 2025)
Active and inactive are the calls of the source. The rule behind the calls is not given here.

Experiments:
MHCC97H [1] = experiment: Cytotoxicity against human MHCC97H cells assessed as inhibition of cell proliferation incubated for 48 hrs by MTT assay; format: functional, cell-based
HepG2 [2] = experiment: Cytotoxicity against human HepG2 cells assessed as inhibition of cell proliferation incubated for 48 hrs by MTT assay; format: functional, cell-based; conditions: HepG2, 48 h
Huh-7 [3] = experiment: Cytotoxicity against human Huh-7 cells assessed as inhibition of cell proliferation incubated for 48 hrs by MTT assay; format: functional, cell-based; conditions: Huh-7, 48 h
HCCLM3 [4] = experiment: Cytotoxicity against human HCCLM3 cells assessed as inhibition of cell proliferation incubated for 48 hrs by MTT assay; format: functional, cell-based; conditions: HCCLM3, 48 h
MHCC97H [5] = experiment: Antiproliferative activity against human MHCC97H cells assessed as reduction in intracellular ATP level at 10 uM incubated for 48 hrs by luminometer analysis relative to control; format: functional; design: scale not given: the % may be the effect or the level left
HepG2 [6] = experiment: Antiproliferative activity against human HepG2 cells assessed as reduction in intracellular ATP level at 10 uM incubated for 48 hrs by luminometer analysis relative to control; format: functional; design: scale not given: the % may be the effect or the level left
MHCC97H [7] = experiment: Antitumor activity against human MHCC97H cells xenografted in nude mouse assessed as tumor weight at 5 mg/kg, po administered daily for 3 weeks (reference value: 1.667g); format: functional
Huh-7 [8] = experiment: Antiproliferative activity against human Huh-7 cells assessed as reduction in intracellular ATP level at 10 uM incubated for 48 hrs by luminometer analysis relative to control; format: functional; design: scale not given: the % may be the effect or the level left
MHCC97H [9] = experiment: Antitumor activity against human MHCC97H cells xenografted in nude mouse assessed as tumor weight at 10 mg/kg, po administered daily for 3 weeks (reference value: 1.667g); format: functional
HCCLM3 [10] = experiment: Antiproliferative activity against human HCCLM3 cells assessed as reduction in intracellular ATP level at 10 uM incubated for 48 hrs by luminometer analysis relative to control; format: functional; design: scale not given: the % may be the effect or the level left
MHCC97H [11] = experiment: Antitumor activity against human MHCC97H cells xenografted in nude mouse assessed as tumor growth inhibition at 10 mg/kg, po administered daily for 3 weeks relative to control; format: functional; conditions: 504 h, read-out: TGI
MHCC97H [12] = experiment: Antitumor activity against human MHCC97H cells xenografted in nude mouse assessed as tumor growth inhibition at 5 mg/kg, po administered daily for 3 weeks relative to control; format: functional; conditions: 504 h, read-out: TGI
HCCLM3 [13] = experiment: Cytotoxicity against human HCCLM3 cells assessed as cell viability incubated at 12 to 48 hrs hrs by MTT assay; format: functional, cell-based; conditions: dose <= 40.0 µM, time 12-48 hrs
HCCLM3 [14] = experiment: Cytotoxicity against human HCCLM3 cells assessed as cell viability up to 40 uM measured at 12 hrs by MTT assay; format: functional, cell-based
MHCC97H [15] = experiment: Cytotoxicity against human MHCC97H cells assessed as cell viability incubated at 12 to 48 hrs hrs by MTT assay; format: functional, cell-based; conditions: dose <= 40.0 µM, time 12-48 hrs
MHCC97H [16] = experiment: Cytotoxicity against human MHCC97H cells assessed as cell viability up to 40 uM by MTT assay; format: functional, cell-based; conditions: time 12-48 hrs
MHCC97H [17] = experiment: Cytotoxicity against human MHCC97H cells assessed as reduction in cell viability at 40 uM measured after 48 hrs by MTT assay; format: functional, cell-based
HCCLM3 [18] = experiment: Cytotoxicity against human HCCLM3 cells assessed as cell viability up to 40 uM by MTT assay; format: functional, cell-based; conditions: time 12-48 hrs
HCCLM3 [19] = experiment: Cytotoxicity against human HCCLM3 cells assessed as reduction in cell viability up to 40 uM measured at 48 hrs by MTT assay; format: functional, cell-based
HCCLM3 [20] = experiment: Cytotoxicity against human HCCLM3 cells assessed as reduction in cell viability at 40 uM measured after 48 hrs by MTT assay; format: functional, cell-based
HCCLM3 [21] = experiment: Cytotoxicity against human HCCLM3 cells assessed as reduction in cell viability at 40 uM measured at 48 hrs by MTT assay; format: functional, cell-based
MHCC97H [22] = experiment: Cytotoxicity against human MHCC97H cells assessed as cell viability up to 40 uM measured at 24 to 48 hrs by MTT assay; format: functional, cell-based; conditions: time 24-48 hrs
MHCC97H [23] = experiment: Cytotoxicity against human MHCC97H cells assessed as reduction in cell viability up to 40 uM measured at 48 hrs by MTT assay; format: functional, cell-based
HCCLM3 [24] = experiment: Cytotoxicity against human HCCLM3 cells assessed as cell viability up to 40 uM measured at 24 to 48 hrs by MTT assay; format: functional, cell-based; conditions: time 24-48 hrs
MHCC97H [25] = experiment: Cytotoxicity against human MHCC97H cells assessed as cell viability up to 40 uM measured at 12 hrs by MTT assay; format: functional, cell-based
MHCC97H [26] = experiment: Cytotoxicity against human MHCC97H cells assessed as reduction in cell viability at 40 uM measured at 48 hrs by MTT assay; format: functional, cell-based

Structure (SMILES)	IC50 (MHCC97H [1]) [µM]	IC50 (HepG2 [2]) [µM]	IC50 (Huh-7 [3]) [µM]	IC50 (HCCLM3 [4]) [µM]	other results
CC[C@@H](C)[C@H]1NC(=O)[C@@H]2CCCN2C(=O)[C@@H](CC(C)C)NC(=O)[C@H]([C@H](C)OC(C)(C)C)NC(=O)[C@@H](CC(C)C)NC(=O)[C@H](C(C)C)NC(=O)[C@H](CC(C)C)NC(=O)[C@H](CC(C)C)NC(=O)[C@H](CC(C)C)NC1=O	6.05	3.41	3.41	4.19	
CC[C@@H](C)[C@H]1NC(=O)[C@@H]2CCCN2C(=O)[C@@H](CC(C)C)NC(=O)[C@@H]([C@@H](C)OC(C)(C)C)NC(=O)[C@H](CC(C)C)NC(=O)[C@H](C(C)C)NC(=O)[C@H](CC(C)C)NC(=O)[C@H](CC(C)C)NC(=O)[C@H](CC(C)C)NC1=O	> 100	> 100	> 100	> 100	
CC[C@@H](C)[C@H]1NC(=O)[C@@H]2CCCN2C(=O)[C@@H](CC(C)C)NC(=O)[C@H](C(C)C)NC(=O)[C@@H](CC(C)C)NC(=O)[C@H](C(C)C)NC(=O)[C@H](CC(C)C)NC(=O)[C@H](CC(C)C)NC(=O)[C@H](CC(C)C)NC1=O	8.18	12.2	12.2	9.94	
CC[C@@H](C)[C@H]1NC(=O)[C@@H]2CCCN2C(=O)[C@@H](CC(C)C)NC(=O)[C@H](COC(C)(C)C)NC(=O)[C@@H](CCCCNC(=O)OC(C)(C)C)NC(=O)[C@H](C(C)C)NC(=O)[C@H](CC(C)C)NC(=O)[C@H](CC(C)C)NC(=O)[C@H](CC(C)C)NC1=O	3.04	> 100	> 100	2.99	
CC[C@@H](C)[C@H]1NC(=O)[C@@H]2CCCN2C(=O)[C@@H](CC(C)C)NC(=O)[C@H](Cc2ccc(OC(C)(C)C)cc2)NC(=O)[C@@H](CC(C)C)NC(=O)[C@H](C(C)C)NC(=O)[C@H](CC(C)C)NC(=O)[C@H](CC(C)C)NC(=O)[C@H](CC(C)C)NC1=O	4.86	2.08	2.08	2.86	
CC[C@@H](C)[C@H]1NC(=O)[C@@H]2CCCN2C(=O)[C@@H](CC(C)C)NC(=O)[C@@H](COC(C)(C)C)NC(=O)[C@H](CC(C)C)NC(=O)[C@H](C(C)C)NC(=O)[C@H](CC(C)C)NC(=O)[C@H](CC(C)C)NC(=O)[C@H](CC(C)C)NC1=O	> 100	> 100	> 100	> 100	
CC[C@@H](C)[C@H]1NC(=O)[C@@H]2CCCN2C(=O)[C@@H](CC(C)C)NC(=O)[C@@H](Cc2ccc(OC(C)(C)C)cc2)NC(=O)[C@H](CC(C)C)NC(=O)[C@H](C(C)C)NC(=O)[C@H](CC(C)C)NC(=O)[C@H](CC(C)C)NC(=O)[C@H](CC(C)C)NC1=O	> 100	> 100	> 100	> 100	
CC[C@H](C)[C@@H]1NC(=O)[C@@H]2CCCN2C(=O)[C@H](CC(C)C)NC(=O)[C@H](COC(C)(C)C)NC(=O)[C@H](CC(C)C)NC(=O)[C@H](C(C)C)NC(=O)[C@H](CC(C)C)NC(=O)[C@H](CC(C)C)NC(=O)[C@H](CC(C)C)NC1=O					Activity (MHCC97H [5]): 87.8%; Activity (HepG2 [6]): 41.1%; Activity (MHCC97H [7]): 0.052 g; Activity (Huh-7 [8]): 81.8%; Activity (MHCC97H [9]): 0.262 g; Activity (HCCLM3 [10]): 99.9%; inhibition in vivo at 10 mg/kg (MHCC97H [11]): 84.3%; inhibition in vivo at 5 mg/kg (MHCC97H [12]): 68.9%
CC(C)C[C@@H]1NC(=O)[C@H](CC(C)C)NC(=O)[C@@H](CCCCNC(=O)OC(C)(C)C)NC(=O)[C@@H]2CCCN2C(=O)[C@@H](CC(C)C)NC(=O)[C@H](COC(C)(C)C)NC(=O)[C@H](CC(C)C)NC(=O)[C@H](C(C)C)NC(=O)[C@H](CC(C)C)NC1=O	10.2	> 100	> 100	10.2	
CC[C@@H](C)[C@H]1NC(=O)[C@@H]2CCCN2C(=O)[C@@H](CC(C)C)NC(=O)CNC(=O)[C@H](CC(C)C)NC(=O)[C@H](C(C)C)NC(=O)[C@H](CC(C)C)NC(=O)[C@H](CC(C)C)NC(=O)[C@H](CC(C)C)NC1=O	> 100	> 100	> 100	> 100	
CC[C@@H](C)[C@H]1NC(=O)[C@@H]2CCCN2C(=O)[C@@H](CC(C)C)NC(=O)[C@@H]([C@@H](C)OC(C)(C)C)NC(=O)[C@@H](CCCCNC(=O)OC(C)(C)C)NC(=O)[C@H](C(C)C)NC(=O)[C@H](CC(C)C)NC(=O)[C@H](CC(C)C)NC(=O)[C@H](CC(C)C)NC1=O	9.19	> 100	> 100	6.57	Activity (HCCLM3 [13]): Dose-dependent-effect; Activity (HCCLM3 [14]): Active; Activity (MHCC97H [15]): Dose-dependent-effect; Activity (MHCC97H [16]): Time-dependent-effect; Activity (MHCC97H [17]): Active; Activity (HCCLM3 [18]): Time-dependent-effect; Activity (HCCLM3 [19]): Active; Activity (HCCLM3 [20]): Active; Activity (HCCLM3 [21]): Active; Activity (MHCC97H [22]): Active; Activity (MHCC97H [23]): Active; Activity (HCCLM3 [24]): Active; Activity (MHCC97H [25]): Active; Activity (MHCC97H [26]): Active
CC(C)C[C@@H]1NC(=O)[C@H](CC(C)C)NC(=O)[C@@H](CCCCNC(=O)OC(C)(C)C)NC(=O)[C@@H]2CCCN2C(=O)[C@@H](CC(C)C)NC(=O)[C@H](Cc2ccc(OC(C)(C)C)cc2)NC(=O)[C@H](CC(C)C)NC(=O)[C@H](C(C)C)NC(=O)[C@H](CC(C)C)NC1=O	3.51	> 100	> 100	3.26	Activity (HCCLM3 [13]): Dose-dependent-effect; Activity (HCCLM3 [14]): Active; Activity (MHCC97H [15]): Dose-dependent-effect; Activity (MHCC97H [16]): Time-dependent-effect; Activity (MHCC97H [17]): Active; Activity (HCCLM3 [18]): Time-dependent-effect; Activity (HCCLM3 [19]): Active; Activity (HCCLM3 [20]): Active; Activity (HCCLM3 [21]): Active; Activity (MHCC97H [22]): Active; Activity (MHCC97H [23]): Active; Activity (HCCLM3 [24]): Active; Activity (MHCC97H [25]): Active; Activity (MHCC97H [26]): Active
CC(C)C[C@@H]1NC(=O)[C@H](CC(C)C)NC(=O)[C@@H](CCCCNC(=O)OC(C)(C)C)NC(=O)[C@@H]2CCCN2C(=O)[C@@H](CC(C)C)NC(=O)[C@H](Cc2ccccc2)NC(=O)[C@H](CC(C)C)NC(=O)[C@H](C(C)C)NC(=O)[C@H](CC(C)C)NC1=O	3.64	> 100	> 100	5.23	
CC(C)C[C@@H]1NC(=O)[C@H](CC(C)C)NC(=O)[C@@H](CCCCNC(=O)OC(C)(C)C)NC(=O)[C@@H]2CCCN2C(=O)[C@@H](CC(C)C)NC(=O)[C@H](C(C)C)NC(=O)[C@H](CC(C)C)NC(=O)[C@H](C(C)C)NC(=O)[C@H](CC(C)C)NC1=O	2.7	> 100	> 100	2.17	
CC[C@@H](C)[C@H]1NC(=O)[C@@H]2CCCN2C(=O)[C@@H](CC(C)C)NC(=O)[C@H](CCCCNC(=O)OC(C)(C)C)NC(=O)[C@@H](CC(C)C)NC(=O)[C@H](C(C)C)NC(=O)[C@H](CC(C)C)NC(=O)[C@H](CC(C)C)NC(=O)[C@H](CC(C)C)NC1=O	> 100	> 100	> 100	> 100	
CC[C@@H](C)[C@H]1NC(=O)[C@@H]2CCCN2C(=O)[C@@H](CC(C)C)NC(=O)[C@@H](Cc2ccccc2)NC(=O)[C@H](CC(C)C)NC(=O)[C@H](C(C)C)NC(=O)[C@H](CC(C)C)NC(=O)[C@H](CC(C)C)NC(=O)[C@H](CC(C)C)NC1=O	> 100	> 100	> 100	> 100	
